US11571397B2, “Compositions and methods for treating seizure-induced sudden death” (ZOGENIX INTERNATIONAL LIMITED, priority 2018, dated 2023)

Tests used:
DBA/1 mice [1] = assay: AGSz and S-IRA in DBA/1 mice tested for the first time at 16 h after FFA pretreatment; format: in vivo, mouse
Source text: (§1) The typical seizure semiology in the DBA/1 mice begins with a wild running phase, followed by clonic-tonic seizures and then tonic hind-limb extension that immediately leads to S-IRA during post-ictal behavioral depression (PID). The onset of S-IRA was visually determined by the occurrence of respiratory failure following loss of the righting reflex, relaxation of the pinnae, and then a generalized loss of muscle tone. These behaviors are reliable indicators of imminent sudden death in DBA mice. Resuscitation was initiated within 10 s after pinna relaxation and the generalized loss of muscle tone, which was effective in reversing S-IRA and reviving >90% of the mice. The mice were placed in a supine position, and a polyethylene tube (4.4 mm external diameter) connected to the outflow of a rodent respirator (Harvard Apparatus 680), pumping one cc of room air at 200 strokes/min, was the placed over the nostrils, which produced observable displacement of the chest. Respiratory support was provided until spontaneous breathing rhythm returned, which required ˜19 sec. The mice were monitored until they regained the righting reflex and then returned to their home cage. Video recordings of seizure behaviors and recovery were made for off-line evaluation and analysis, including the duration of PID, as indicated by time from muscle tone loss to return of the righting reflex.
FIGS. 4A and 4B illustrate the reduction in the incidence of severe seizures and prevention of S-IRA by FFA pretreatment. In subsequent experiments, AGSz were examined in DBA/1 mice that were treated with 15 mg/kg of FFA i.p. but were initially tested at 16 h. […] [#p<0.001 (Chi-square test] (FIG. 4B). The return of S-IRA susceptibility (94.5%) in the FFA treated mice occurred at 48 h consistent with the previous findings (FIG. 2C).

[2] = Preliminary pharmacokinetic experiments in DBA/1 mice; format: in vivo, mouse; conditions: 16 h after 15 mg/kg
Procedure: DBA/1 mice show consistent susceptibility to sudden death due to S-IRA immediately following AGSz unless resuscitation is rapidly provided. In the present study FFA exerted a significant dose- and time-dependent blockade of S-IRA and AGSz. […] The significant incidence of selective S-IRA blockade was also seen in the mice that were tested initially at 16 h following 15 mg/kg of FFA (FIG. 4B), further confirming the effectiveness of the drug and the time-course of the effect. […] Furthermore, the dose of 15 mg/kg FFA in adult mouse, based on body surface areas in accordance with Reagan-Shaw and co-workers, translates to the clinically effective range [1.8 mg/kg/day (child) or 1.2 mg/kg/day (adult)] used in patients. The presently disclosed FFA doses are also similar to those in the rodent studies, which established the original usefulness of this drug.

DBA/1 mice [3] = assay: AGSz and S-IRA in DBA/1 mice, 8-hour testing protocol; format: in vivo, mouse
Source text: as §1
The experiments herein disclosed examined the dose-response relationship of FFA (10-40 mg/kg, i.p.) on AGSz-induced behaviors in DBA/1 mice compared to vehicle (saline) treated control mice using different seizure-testing protocols. This initial protocol involved induction of AGSz at 30 min, 12 h and 24 h after drug administration, and subsequently at 24 h intervals until susceptibility to S-IRA returned. These studies were aimed at determining whether FFA can reduce the incidence (frequency) and severity of AGSz and susceptibility to S-IRA. […] To determine the effect of FFA on the severity of AGSz in DBA/1 mice, the ordinal scoring system of De Sarro and coworkers was used: no seizure=0; wild running=1; clonic seizure=2; tonic seizure=3; death/S-IRA=4. The median effective dose (ED50) for FFA for blocking AGSz at 30 min following the i.p. injection in DBA/1 mice was calculated using a second order polynomial equation (y=65.113x^2-2.0715x-63.578) that gave the best fit (R^2=0.9989).
The videos of seizure behaviors were analyzed visually, and the incidence (frequency) of AGSz, seizure severity, and incidence (frequency) of S-IRA following drug treatment were compared statistically to vehicle controls using the Chi-square, Mann-Whitney U or paired samples t-test with SPSS software. The ED50 was calculated using SigmaPlot 13 and Microsoft® Excel. The experimental protocols used in these studies were approved by the Laboratory Animal Care and Use Committee of Southern Illinois University School of Medicine, which are in accordance with National Institutes of Health guidelines for the care and use of laboratory animals. Measures to minimize animal usage as well as pain and discomfort were included in these procedures.
FIGS. 2A through 2D show a time-course of selective S-IRA blocking effect of FFA in DBA/1 mice (8 h testing protocol). The 8-h testing protocol during the first 24 h was employed in the next group of studies of the effect of 5-20 mg/kg (i.p.) doses of FFA. […] The severity of AGSz remained unaffected in the mice that received 5 (light horizontal line bars; n=9) mg/kg FFA. A significant return of AGSz severity among the FFA treated DBA/1 mice occurred by 24 h. [**p<0.01; #p<0.001 indicate statistically different from controls, Mann-Whitney U test].

[4] = system: children with refractory epilepsy; conditions: 0.5 to 1 mg/kg/day; cited from earlier work
[5] = 15 mg/kg i.p., first tested at 16 h (n=73)

CCNC(C)Cc1cccc(C(F)(F)F)c1 (racemic) [FFA, 3-trifluoromethyl-N-ethylamphetamine]
overall incidence of S-IRA (DBA/1 mice [1]; [5]): 21.9%
overall incidence of tonic seizures (DBA/1 mice [1]; [5]): 68.5%
incidence of selective S-IRA blockade among mice that continued to display tonic seizures (DBA/1 mice [1]; 15 mg/kg, 16 h (n=50)): 68%
return of S-IRA susceptibility (DBA/1 mice [1]; at 48 h after 15 mg/kg): 94.5%
plasma level of FFA and area under the curve vs levels in Dravet syndrome patients after single oral dose (0.8 mg/kg) [2]: comparable
blocking any AGSz behavior (DBA/1 mice [3]; 5 mg/kg): ineffective
effect against tonic seizures (DBA/1 mice [3]; 5 mg/kg): ineffective
incidence of S-IRA (DBA/1 mice [3]; 5 mg/kg): not affected
severity of AGSz (DBA/1 mice [3]; 5 mg/kg): unaffected
mice with selective blockade of S-IRA among those that showed tonic AGSz (DBA/1 mice [3]; 15 mg/kg, 16 h time point (n=5)): 100%
total incidence of selective S-IRA blockade (DBA/1 mice [3]; 15 mg/kg, during time-course studies): 70%
median AGSz severity scores (DBA/1 mice [3]; 10, 15 and 20 mg/kg i.p., starting at 8 h, vs saline): significant reduction
incidence of S-IRA (DBA/1 mice [3]; 10, 15 and 20 mg/kg, starting at 8 h, vs saline): significant reduction
return of susceptibility to tonic seizures (DBA/1 mice [3]; 10-20 mg/kg): 16 to 48 h
incidence of tonic seizures (DBA/1 mice [3]; 10-20 mg/kg, at 8 h, vs saline): significantly reduced
duration of PID (loss of righting reflex) (DBA/1 mice [3]; 16 h after 15 mg/kg, mice with selective S-IRA blockade, pre-drug 168.6±43.4 s): 34.6 ± 13.3 s
return of AGSz severity (DBA/1 mice [3]; FFA treated mice, 8-h protocol): ≤ 24 h
return of S-IRA susceptibility (DBA/1 mice [3]; FFA treated mice, 8-h protocol): 48 h
number of seizures experienced by the patients [4]: reduction
